According to paper doi:10.1101/2025.11.04.686469, “Discovery of Host-Directed Small Molecules with Broad Anti-Leishmanial Efficacy” (bioRxiv, 2025):
≈ marks a conversion by molar mass, not a printed value. Read-outs that look alike come from different tables or passages of the source.

Legend:
[1] = test system: extracellular L. donovani promastigotes; experiment: Effect of compounds on promastigote viability (resazurin assay); format: cell-based, Leishmania donovani; details: for MIC50: Leishmania donovani, 72-hour incubation
Description: The effect of compounds on extracellular promastigotes was evaluated using a resazurin-based assay as described previously. In short, late log phase Leishmania promastigotes were seeded in a 96 well plate at 1 x 10^5 parasites per well and treated with drugs (0.5 – 200 μM) for 72 hours at 25°C. Ten microliters of resazurin (0.02% w/v) were added to the treated parasites to achieve a final concentration of 0.002% w/v and incubated for 24 hours. Viability of the promastigotes was assessed by fluorescence (excitation 544 nm, emission 590 nm, SpectraMax M2, Molecular Devices).

[2] = biological target: T1, lysozyme (Homo sapiens, UniProt P61626); experiment: Thermal proteome profiling in Leishmania infected macrophage lysate; format: binding; details: ligand 100 μM
T1 construct: endogenous in cells; host or cells: THP-1 cells differentiated with PMA and infected with L. mexicana promastigotes; cell lysate
T1 sequence (P61626 19-148): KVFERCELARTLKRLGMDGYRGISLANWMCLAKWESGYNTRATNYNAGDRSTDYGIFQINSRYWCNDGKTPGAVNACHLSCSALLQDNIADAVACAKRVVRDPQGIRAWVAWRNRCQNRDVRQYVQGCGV
Description: To generate cell lysate, ten million THP-1 cells were plated overnight in a 10cm dish, then differentiated with 150 nM phorbol 12-myristate 13-acetate (PMA) for 72 hours. The resulting macrophages were infected with L. mexicana promastigotes at a multiplicity of infection of 10 and incubated for 18 hours. After infection, cells were washed three times with PBS to remove extracellular promastigotes. Cells were then collected by scraping and pelleted with centrifugation. The cell pellet was resuspended in phosphate buffered saline and subjected to five freeze-thaw cycles. Samples were centrifuged 14,000g x 10 minutes to remove cellular debris. Protein concentration of supernatant was determined by BCA assay and cell lysate was stored at −80 °C until further use.
The cell lysate was divided into two portions. One portion was spiked with the 197 ligand in DMSO to generate the with ligand sample; and the other portion was spiked with DMSO to generate the without ligand sample. The final concentration of […] in the with ligand sample was 100 μM, and both the without and with ligand samples contained 1% DMSO. The with and without samples were each subjected five replicate one-pot TPP analyses like that previously described.[20–22] […]

Structure (SMILES): O=C(CNCc1cccc(F)c1)Nc1ccc(-n2cc(C(F)(F)F)nc2-c2ccc(-c3ccc(C(F)(F)F)cc3)cc2)cc1 [Compound 197]
- MIC50 ([1]; resazurin assay (Table 3), read-out: L. donovani Extracellular promastigotes MIC50): 6.4 µM (≈ 3.92 µg/mL)
- MIC50 ([1]; resazurin assay, read-out: Extracellular L. donovani promastigotes MIC50): 6.4 µM (≈ 3.92 µg/mL)
- direct effect on extracellular promastigote viability ([1]; resazurin assay, strain not named for 53, L. donovani for 197): some direct reduction
- TPP z-score for lysozyme [2]: 4.32
